Patent US6413956B1, “Substituted 4-oxo-quinoline-3-carboxamides” (Neurogen Corporation, priority 1999, dated 2002)

| Compound | melting point |
| --- | --- |
| CCOc1ccc2[nH]cc(C(=O)NCCCOC)c(=O)c2c1 [compound 48, N-[(3-Methoxy)propyl] 6-ethoxy-4-oxo-1,4-dihydro-quinoline-3-carboxamide] | 175 to 177 °C |
| CNC(C)c1cccc(CNC(=O)c2c[nH]c3ccc(Cl)cc3c2=O)c1.Cl (centres unmarked) | 184 °C (dec.) |
| CCOc1ccc2[nH]cc(C(=O)NCc3cccc(F)c3)c(=O)c2c1 [compound 50, N-(3-Fluorobenzyl) 6-ethoxy-4-oxo-1,4-dihydro-quinoline-3-carboxamide] | 210 to 212 °C |
| COCc1ccc2[nH]cc(C(=O)NCc3cccs3)c(=O)c2c1 [compound 32, N-[(2-Thienyl)methyl] 6-methoxymethyl-4-oxo-1,4-dihydro-quinoline-3-carboxamide] | 225 to 226 °C |
| CCOc1ccc2[nH]cc(C(=O)NCc3ccc(Cn4ccnc4)cc3)c(=O)c2c1 [compound 66, N-[4-[(1-Imidazolyl)methyl]benzyl} 6-ethoxy-4-oxo-1,4-dihydro-quinoline-3-carboxamide] | 161 to 165 °C |
| O=C(NCc1ccccc1)c1c[nH]c2ccccc2c1=O [compound 5, N-Benzyl 4-oxo-1,4-dihydro-quinoline-3-carboxamide] | 173 °C |
| CCOc1ccc2[nH]cc(C(=O)NCCC(C)C)c(=O)c2c1 [compound 45, N-Isoamyl 6-ethoxy-4-oxo-1,4-dihydro-quinoline-3-carboxamide] | 180 to 183 °C |
| COCc1ccc2[nH]cc(C(=O)NCc3ccccc3)c(=O)c2c1 [compound 31, N-Benzyl 6-methoxymethyl-4-oxo-1,4-dihydro-quinoline-3-carboxamide] | 195 to 196 °C |
| CCOc1ccc2[nH]cc(C(=O)NCc3ccc(CN4CCCCC4)cc3)c(=O)c2c1 [compound 102, N-{4-[(1-Piperidinyl)methyl]benzyl} 6-ethoxy-4-oxo-1,4-dihydroquinoline-3-carboxamide] | 172 to 174 °C |
| CCCCCCNC(=O)c1c[nH]c2ccc(OCC)cc2c1=O [compound 57, N-Hexyl 6-ethoxy-4-oxo-1,4-dihydro-quinoline-3-carboxamide] | 181 to 182 °C |
| O=C(NCc1ccc(F)cc1)c1c[nH]c2ccccc2c1=O [compound 8, N-(4-Fluorobenzyl) 4-oxo-1,4-dihydro-quinoline-3-carboxamide] | 213 to 215 °C |
